Experimental findings from patent US20240050465A1, “HYDROGEN WATER FOR PREVENTION OF ALCOHOLIC HEPATOPATHY” (NIHON TRIM CO., LTD., priority 2021, published 2024) are described below.

Like-named read-outs stand apart in the source and are kept apart here.

This series concerns HepG2 cells. The note with it: 24 hours; for Cell viability: vs 0% ethanol.

Experimental: A HepG2 cell line, which is human liver cancer-derived cells, was obtained from Riken Bioresource Research Center (RIKEN BRC) and cultured in DMEM containing 10% fetal bovine serum (FBS) (Sigma-Aldrich, F7524) and 1% penicillin-streptomycin (manufactured by FUJIFILM Wako Pure Chemical Corporation, trade name: 168-23191) under conditions of 37° C. and 5% CO2.

`CCO` [Ethanol, ethanol]: the Viable cell count is 9.48 × 10^4 cells/well (HepG2, ethanol 0.25%); 9.37 × 10^4 cells/well (HepG2, ethanol 0.5%); 8.22 × 10^4 cells/well (HepG2, ethanol 1%); 6.05 × 10^4 cells/well (HepG2, ethanol 2%); 4.87 × 10^4 cells/well (HepG2, ethanol 4%); 0.35 × 10^4 cells/well (HepG2, ethanol 8%). In addition, the Cell viability by setting is: (HepG2, ethanol 0.25%) 96.7%; (HepG2, ethanol 0.5%) 95.6%; (HepG2, ethanol 1%) 83.8%; (HepG2, ethanol 2%) 61.7%; (HepG2, ethanol 4%) 49.7%; (HepG2, ethanol 8%) 3.6%.
